{"source": "patent US7674594B2", "about": "“Screening assay for inhibitors of TRPA1 activation by a lower alkyl phenol” (Redpoint Bio Corporation, priority 2006, dated 2010)", "key": {"hTRPA1 [1]": {"target": "T1, hTRPA1 (Homo sapiens, UniProt O75762)", "T1 construct": "The full length hTRPA1 was amplified by PCR with Kpn1 and Xho1 restriction enzyme sites; expressed in transfected cells; also transient transfection", "T1 sequence (O75762 whole entry)": "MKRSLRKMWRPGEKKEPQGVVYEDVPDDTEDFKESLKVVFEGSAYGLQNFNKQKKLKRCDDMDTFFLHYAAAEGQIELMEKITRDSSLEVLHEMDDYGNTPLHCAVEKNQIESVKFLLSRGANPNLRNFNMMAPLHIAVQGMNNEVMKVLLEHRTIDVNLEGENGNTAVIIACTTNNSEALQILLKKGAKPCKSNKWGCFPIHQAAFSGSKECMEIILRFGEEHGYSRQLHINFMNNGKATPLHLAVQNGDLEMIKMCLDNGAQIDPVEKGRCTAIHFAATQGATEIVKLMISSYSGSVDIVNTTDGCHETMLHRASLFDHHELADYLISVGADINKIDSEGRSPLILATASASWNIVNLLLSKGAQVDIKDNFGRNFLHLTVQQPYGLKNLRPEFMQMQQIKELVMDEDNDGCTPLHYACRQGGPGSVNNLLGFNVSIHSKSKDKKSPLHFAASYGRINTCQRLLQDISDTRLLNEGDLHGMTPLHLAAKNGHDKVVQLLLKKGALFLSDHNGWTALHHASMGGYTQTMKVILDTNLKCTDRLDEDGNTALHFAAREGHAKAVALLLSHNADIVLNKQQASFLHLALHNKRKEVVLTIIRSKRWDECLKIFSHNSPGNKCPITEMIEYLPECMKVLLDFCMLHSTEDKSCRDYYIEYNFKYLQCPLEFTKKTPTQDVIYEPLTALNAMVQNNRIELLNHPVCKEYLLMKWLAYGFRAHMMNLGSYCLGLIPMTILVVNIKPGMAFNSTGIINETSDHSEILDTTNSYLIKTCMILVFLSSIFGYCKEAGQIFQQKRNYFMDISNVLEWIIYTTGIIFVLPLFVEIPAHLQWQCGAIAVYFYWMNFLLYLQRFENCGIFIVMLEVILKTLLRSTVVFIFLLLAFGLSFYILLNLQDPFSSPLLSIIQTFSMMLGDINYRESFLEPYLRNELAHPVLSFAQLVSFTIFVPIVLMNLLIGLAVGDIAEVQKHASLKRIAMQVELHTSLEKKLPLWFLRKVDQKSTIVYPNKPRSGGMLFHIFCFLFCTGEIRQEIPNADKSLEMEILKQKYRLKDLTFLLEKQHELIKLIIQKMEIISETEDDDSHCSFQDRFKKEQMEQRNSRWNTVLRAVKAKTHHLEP", "assay": "Membrane potential dye fluorescence assay (FLIPR/FLEXstation), activation of hTRPA1 in transfected HEK293 cells", "format": "cell-based", "method": "Once expression of TRPA1 was confirmed, 100 μl of the Blue or Red FMP dye (Molecular Devices) was added to each well of plates seeded with the transiently transfected cells. The plate was then incubated in a 37° C./5% CO2 incubator for 1 hour. The plate was read in a FLEXStation microplate reader (Molecular Devices) with an excitation of 530 nm and an emission of 565 nm. The fluorescence was monitored for 3 minutes upon exposure of the cells to a TRPA1 activating agent (e.g., cinnamaldehyde).\n(§1) Samples in a 384-well plate were evaluated in a 5 minute assay on the FLIPR-Tetra™ (Molecular Devices). The assay was performed on a FLIPR™ using the excitation 510-545 nm and emission 565-625 nm filter sets. TRPA1-Transfected HEK cells, 15,000/well, were seeded overnight on poly-D-lysine coated 384 well plates in 20 μl media. Membrane Potential Assay Dye Red (Molecular Devices), 20 μl/well, was added and the plates incubated for 1 hour in a 37° C. and 5% CO2 incubator. The plates were then removed from the incubator and equilibrated to room temperature for 15 minutes before reading on the FLIPR®. The plates were read on the FLIPR® for a total of 3 minutes. Baseline fluorescence was obtained on the FLIPR® for 10 seconds followed by addition (typically 10 μl) of each agonist by the FLIPR® and read for an additional 2 minutes and 50 seconds."}, "hTRPA1 [2]": {"target": "T1, hTRPA1", "assay": "Modulation of agonist-activated TRPA1 in HEK293 cells expressing hTRPA1 (membrane potential dye)", "format": "cell-based", "details": "HEK293 cells", "method": "as §1\n(§2) Appropriate control experiments are performed and can easily be determined by the skilled artisan.\n(§3) HEK293 cells and CHO cells expressing TRPA1 were subjected to the assay described in Example 2."}, "hTRPA1 [3]": {"target": "T1, hTRPA1", "assay": "Modulation of agonist-activated TRPA1 in CHO cells expressing hTRPA1 (membrane potential dye)", "format": "cell-based", "method": "as §1, §2, §3"}, "parental HEK293 cells": {"test_system": "parental HEK293 cells", "assay": "Membrane potential dye fluorescence assay in parental (non-transfected) HEK293 cells", "format": "cell-based, human"}, "hTRPV1": {"target": "T2, hTRPV1 (Homo sapiens, UniProt Q8NER1)", "T2 construct": "expressed in transfected cells", "T2 sequence (Q8NER1 whole entry)": "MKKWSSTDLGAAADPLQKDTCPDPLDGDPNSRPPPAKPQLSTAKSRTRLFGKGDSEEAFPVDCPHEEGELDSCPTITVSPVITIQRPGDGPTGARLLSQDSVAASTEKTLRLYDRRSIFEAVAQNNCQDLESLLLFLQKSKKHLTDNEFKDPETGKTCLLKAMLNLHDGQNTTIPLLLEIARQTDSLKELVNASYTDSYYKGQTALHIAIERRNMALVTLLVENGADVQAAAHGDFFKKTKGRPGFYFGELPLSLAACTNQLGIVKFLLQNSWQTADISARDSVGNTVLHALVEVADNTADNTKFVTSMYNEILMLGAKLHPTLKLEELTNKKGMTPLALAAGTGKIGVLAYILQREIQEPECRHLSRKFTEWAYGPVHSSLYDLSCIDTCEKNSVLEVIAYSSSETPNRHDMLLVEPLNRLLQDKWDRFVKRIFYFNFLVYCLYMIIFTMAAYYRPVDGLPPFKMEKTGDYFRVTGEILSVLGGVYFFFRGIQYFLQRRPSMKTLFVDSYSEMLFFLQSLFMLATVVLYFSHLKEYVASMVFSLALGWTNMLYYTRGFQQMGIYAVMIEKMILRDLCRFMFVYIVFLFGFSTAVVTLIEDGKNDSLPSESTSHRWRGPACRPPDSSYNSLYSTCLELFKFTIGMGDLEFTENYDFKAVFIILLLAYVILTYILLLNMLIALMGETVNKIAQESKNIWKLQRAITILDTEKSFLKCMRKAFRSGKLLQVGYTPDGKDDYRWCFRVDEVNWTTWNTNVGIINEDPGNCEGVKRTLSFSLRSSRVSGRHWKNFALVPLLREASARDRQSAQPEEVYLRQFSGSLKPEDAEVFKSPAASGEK", "assay": "Membrane potential dye fluorescence assay, HEK293 cells expressing hTRPV1", "format": "cell-based", "method": "as §1\n(§4) HEK293 cells were stably transfected with one of hTRPA1, hTRPV1 or hTRPM5. CHO cells were stably transfected with one of hTRPM4B or TRPM5. Parental HEK293 and CHO cells were also used as a negative control."}, "hTRPM4B": {"target": "T3, hTRPM4B (Homo sapiens, UniProt Q8TD43)", "T3 construct": "expressed in transfected cells", "T3 sequence (Q8TD43 whole entry)": "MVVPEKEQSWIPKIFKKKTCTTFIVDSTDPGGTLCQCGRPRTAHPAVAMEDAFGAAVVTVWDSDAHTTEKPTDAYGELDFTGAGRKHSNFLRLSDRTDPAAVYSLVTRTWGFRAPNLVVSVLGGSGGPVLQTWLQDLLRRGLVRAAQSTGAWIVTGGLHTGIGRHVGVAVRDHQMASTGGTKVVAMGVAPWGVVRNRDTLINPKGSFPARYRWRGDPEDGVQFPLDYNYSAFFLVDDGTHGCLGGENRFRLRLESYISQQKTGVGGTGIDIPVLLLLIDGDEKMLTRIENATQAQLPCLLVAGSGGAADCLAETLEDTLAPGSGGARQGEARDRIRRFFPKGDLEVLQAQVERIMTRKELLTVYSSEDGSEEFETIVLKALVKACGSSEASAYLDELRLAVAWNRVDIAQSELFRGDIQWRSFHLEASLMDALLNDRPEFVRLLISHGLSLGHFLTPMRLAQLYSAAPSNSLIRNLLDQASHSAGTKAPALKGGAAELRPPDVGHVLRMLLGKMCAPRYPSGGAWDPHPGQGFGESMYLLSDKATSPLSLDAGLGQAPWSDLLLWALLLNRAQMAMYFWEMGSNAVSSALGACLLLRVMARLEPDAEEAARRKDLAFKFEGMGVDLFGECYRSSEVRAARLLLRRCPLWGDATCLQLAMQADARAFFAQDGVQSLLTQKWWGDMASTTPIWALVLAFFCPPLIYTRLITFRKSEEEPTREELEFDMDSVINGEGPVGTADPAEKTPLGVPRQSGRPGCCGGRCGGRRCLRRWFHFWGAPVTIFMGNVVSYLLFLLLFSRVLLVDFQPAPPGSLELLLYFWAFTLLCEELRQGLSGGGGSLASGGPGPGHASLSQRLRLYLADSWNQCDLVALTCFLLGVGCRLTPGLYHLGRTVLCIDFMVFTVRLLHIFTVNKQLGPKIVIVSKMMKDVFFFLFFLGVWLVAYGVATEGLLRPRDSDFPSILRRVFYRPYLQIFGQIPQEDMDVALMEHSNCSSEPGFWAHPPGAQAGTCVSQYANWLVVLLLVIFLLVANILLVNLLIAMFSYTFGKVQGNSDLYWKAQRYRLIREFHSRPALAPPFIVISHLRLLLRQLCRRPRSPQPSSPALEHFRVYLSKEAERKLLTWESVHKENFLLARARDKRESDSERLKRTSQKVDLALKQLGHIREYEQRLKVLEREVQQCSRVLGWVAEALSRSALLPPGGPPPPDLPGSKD", "assay": "Membrane potential dye fluorescence assay, CHO cells expressing hTRPM4B", "format": "cell-based", "method": "as §1, §4"}, "hTRPM5": {"target": "T4, hTRPM5 (Homo sapiens, UniProt Q9NZQ8)", "T4 construct": "expressed in transfected cells", "T4 sequence (Q9NZQ8 1-1165)": "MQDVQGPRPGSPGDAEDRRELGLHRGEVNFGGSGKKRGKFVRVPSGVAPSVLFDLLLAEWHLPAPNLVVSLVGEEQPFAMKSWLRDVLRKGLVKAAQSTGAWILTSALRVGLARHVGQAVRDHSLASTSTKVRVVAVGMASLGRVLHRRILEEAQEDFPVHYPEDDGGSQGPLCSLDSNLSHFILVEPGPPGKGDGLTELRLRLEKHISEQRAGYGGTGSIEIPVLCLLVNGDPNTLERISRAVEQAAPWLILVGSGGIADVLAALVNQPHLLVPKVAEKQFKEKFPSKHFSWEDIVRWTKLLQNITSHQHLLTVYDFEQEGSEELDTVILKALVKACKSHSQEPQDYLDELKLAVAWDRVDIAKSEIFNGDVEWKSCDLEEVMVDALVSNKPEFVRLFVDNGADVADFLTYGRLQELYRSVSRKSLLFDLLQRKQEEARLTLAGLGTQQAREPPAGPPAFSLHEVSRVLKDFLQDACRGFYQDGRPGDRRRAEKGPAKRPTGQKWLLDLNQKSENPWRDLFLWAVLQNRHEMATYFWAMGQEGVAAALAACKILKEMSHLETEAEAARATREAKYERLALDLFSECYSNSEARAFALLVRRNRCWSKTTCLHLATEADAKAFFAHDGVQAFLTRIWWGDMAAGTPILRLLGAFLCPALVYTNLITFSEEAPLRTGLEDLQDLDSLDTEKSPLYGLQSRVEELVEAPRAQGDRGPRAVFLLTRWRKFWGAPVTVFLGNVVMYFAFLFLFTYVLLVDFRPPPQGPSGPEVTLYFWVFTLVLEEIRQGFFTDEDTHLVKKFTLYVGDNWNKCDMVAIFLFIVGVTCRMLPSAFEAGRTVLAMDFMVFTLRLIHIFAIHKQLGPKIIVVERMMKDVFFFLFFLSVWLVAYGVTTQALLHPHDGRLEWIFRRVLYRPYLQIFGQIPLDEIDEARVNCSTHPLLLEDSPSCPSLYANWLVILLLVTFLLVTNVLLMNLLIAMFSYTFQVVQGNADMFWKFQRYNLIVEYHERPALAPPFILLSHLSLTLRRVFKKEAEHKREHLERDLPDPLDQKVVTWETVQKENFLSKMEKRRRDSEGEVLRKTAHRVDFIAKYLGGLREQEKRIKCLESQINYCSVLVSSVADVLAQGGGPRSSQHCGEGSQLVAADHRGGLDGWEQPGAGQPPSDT", "assay": "Membrane potential dye fluorescence assay, HEK293 or CHO cells expressing hTRPM5", "format": "cell-based", "method": "as §1, §4"}, "mice": {"test_system": "mice", "assay": "Taste aversion (lick) assay in mice", "format": "in vivo, mouse", "method": "In this assay, the ability of identified lower alkyl phenols to evoke taste aversion in mice was measured. Mice were exposed to increasing concentrations of lower alkyl phenols."}, "[4]": {"details": "hTRPA1 HEK293 cells, increase in fluorescence of membrane potential dye"}, "[5]": {"details": "HEK293 cells stably transfected with hTRPA1, FMP dye, FLIPR"}, "[6]": {"details": "HEK293, increasing concentrations, FIG. 6"}, "[7]": {"details": "CHO, increasing concentrations, FIG. 6"}, "[8]": {"details": "increasing concentrations, FIG. 6"}, "[9]": {"details": "mice, increasing concentrations"}}, "note": "Where two headings read alike, the source gives them in different places.", "data": [{"smiles": "CC12CCC(CC1=O)C2(C)C", "note": "(stereo not drawn) [Camphor]", "values": [{"measurement": "TRPA1 activation / agonist activity (in words)", "setting": "hTRPA1 [1]; [4]", "value": "has no agonist activity"}, {"measurement": "TRPA1 activation / agonist activity (in words)", "setting": "hTRPA1 [1]; hTRPA1 HEK293 cells, increase in fluorescence of membrane potential dye, listed as camphor", "value": "are TRPA1 agonists"}, {"measurement": "inhibition of allyl isothiocyanate activated TRPA1 (in words)", "setting": "hTRPA1 [2]", "value": "fully inhibited"}, {"measurement": "inhibition of cinnamaldehyde activated TRPA1 (in words)", "setting": "hTRPA1 [2]", "value": "fully inhibited"}, {"measurement": "inhibition of thymol activated TRPA1 (in words)", "setting": "hTRPA1 [2]", "value": "fully inhibited"}, {"measurement": "inhibition of thymol activated TRPA1 (in words)", "setting": "hTRPA1 [2]; listed as camphor", "value": "agonists of thymol activation of TRPA1"}, {"measurement": "inhibition of allyl isothiocyanate activated TRPA1 (in words)", "setting": "hTRPA1 [3]", "value": "potentially inhibits"}, {"measurement": "inhibition of cinnamaldehyde activated TRPA1 (in words)", "setting": "hTRPA1 [3]", "value": "potentially inhibits"}, {"measurement": "inhibition of thymol activated TRPA1 (in words)", "setting": "hTRPA1 [3]", "value": "fully inhibits"}]}, {"smiles": "CC(C)c1cccc(C(C)C)c1O", "note": "[Propofol]", "values": [{"measurement": "EC50", "setting": "hTRPA1 [1]", "value": "13 ± 6", "unit": "µM"}, {"measurement": "TRPA1 activation / agonist activity (in words)", "setting": "hTRPA1 [1]", "value": "generated an increase in relative fluorescence"}, {"measurement": "response of parental HEK293 cells (in words)", "setting": "parental HEK293 cells", "value": "background fluorescence"}, {"measurement": "response of cells expressing hTRPV1 (in words)", "setting": "hTRPV1", "value": "did not generate the same increase in relative fluorescence"}, {"measurement": "response of cells expressing hTRPM4B (in words)", "setting": "hTRPM4B", "value": "did not generate the same increase in relative fluorescence"}, {"measurement": "response of cells expressing hTRPM5 (in words)", "setting": "hTRPM5", "value": "did not generate the same increase in relative fluorescence"}, {"measurement": "taste aversion, licks/trial (in words)", "setting": "mice; mouse, in vivo", "value": "a decrease in licks/trial"}]}, {"smiles": "Cc1cccc(C)c1O", "note": "[2,6-dimethylphenol]", "values": [{"measurement": "EC50", "setting": "hTRPA1 [1]; [5]", "value": "66 ± 22", "unit": "µM"}, {"measurement": "TRPA1 activation / agonist activity (in words)", "setting": "hTRPA1 [1]; [4]", "value": "generated an increase in relative fluorescence"}, {"measurement": "response of parental HEK293 cells (in words)", "setting": "parental HEK293 cells; cells not expressing TRPA1", "value": "no response"}, {"measurement": "response of cells expressing hTRPV1 (in words)", "setting": "hTRPV1; [6]", "value": "did not generate the same increase in relative fluorescence"}, {"measurement": "response of cells expressing hTRPM4B (in words)", "setting": "hTRPM4B; [7]", "value": "did not generate the same increase in relative fluorescence"}, {"measurement": "response of cells expressing hTRPM5 (in words)", "setting": "hTRPM5; [8]", "value": "did not generate the same increase in relative fluorescence"}]}, {"smiles": "Cc1ccccc1O", "note": "[o-Cresol]", "values": [{"measurement": "EC50", "setting": "hTRPA1 [1]; [5]", "value": "327 ± 132", "unit": "µM"}, {"measurement": "TRPA1 activation / agonist activity (in words)", "setting": "hTRPA1 [1]; [4]", "value": "generated an increase in relative fluorescence"}, {"measurement": "response of parental HEK293 cells (in words)", "setting": "parental HEK293 cells; cells not expressing TRPA1", "value": "no response"}, {"measurement": "response of cells expressing hTRPV1 (in words)", "setting": "hTRPV1; [6]", "value": "did not generate the same increase in relative fluorescence"}, {"measurement": "response of cells expressing hTRPM4B (in words)", "setting": "hTRPM4B; [7]", "value": "did not generate the same increase in relative fluorescence"}, {"measurement": "response of cells expressing hTRPM5 (in words)", "setting": "hTRPM5; [8]", "value": "did not generate the same increase in relative fluorescence"}, {"measurement": "taste aversion, licks/trial (in words)", "setting": "mice; [9]", "value": "a decrease in licks/trial"}]}, {"smiles": "Cc1ccc(O)cc1C", "note": "[3,4-dimethylphenol]", "values": [{"measurement": "response of parental HEK293 cells (in words)", "setting": "parental HEK293 cells; cells not expressing TRPA1", "value": "no response"}]}, {"smiles": "Oc1ccccc1", "note": "[phenol]", "values": [{"measurement": "TRPA1 activation / agonist activity (in words)", "setting": "hTRPA1 [1]", "value": "did not generate the same increase in relative fluorescence"}, {"measurement": "response of cells expressing hTRPV1 (in words)", "setting": "hTRPV1", "value": "generated an increase in relative fluorescence"}, {"measurement": "response of cells expressing hTRPM4B (in words)", "setting": "hTRPM4B", "value": "did not generate the same increase in relative fluorescence"}, {"measurement": "response of cells expressing hTRPM5 (in words)", "setting": "hTRPM5", "value": "did not generate the same increase in relative fluorescence"}, {"measurement": "taste aversion, licks/trial (in words)", "setting": "mice; mouse, in vivo", "value": "a decrease in licks/trial"}]}, {"smiles": "Cc1ccc(C)c(O)c1", "note": "[2,5-dimethylphenol]", "values": [{"measurement": "EC50", "setting": "hTRPA1 [1]; [5]", "value": "52 ± 29", "unit": "µM"}, {"measurement": "TRPA1 activation / agonist activity (in words)", "setting": "hTRPA1 [1]; [4]", "value": "generated an increase in relative fluorescence"}, {"measurement": "response of parental HEK293 cells (in words)", "setting": "parental HEK293 cells; cells not expressing TRPA1", "value": "no response"}, {"measurement": "response of cells expressing hTRPV1 (in words)", "setting": "hTRPV1; [6]", "value": "did not generate the same increase in relative fluorescence"}, {"measurement": "response of cells expressing hTRPM4B (in words)", "setting": "hTRPM4B; [7]", "value": "did not generate the same increase in relative fluorescence"}, {"measurement": "response of cells expressing hTRPM5 (in words)", "setting": "hTRPM5; [8]", "value": "did not generate the same increase in relative fluorescence"}, {"measurement": "taste aversion, licks/trial (in words)", "setting": "mice; [9]", "value": "a decrease in licks/trial"}]}]}
